ChEMBL document CHEMBL1201862, “PubChem BioAssay data set” (2004)
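48-hour exposure; five concentrations; linearly interpolated endpoints. The concentration for 50% growth inhibition is given as GI50.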 The source made the active and inactive calls. Cut-off read from the data, not from the text of the source: active = GI50 up to about 1.1 µM and inactive = higher.

Tests used:
Assay in all cases: DTP human tumour cell line panel, 48 h
A549 = system: A549
OVCAR-8 = system: OVCAR-8
SF-295 = system: SF-295
OVCAR-5 = system: OVCAR-5
SW-620 = system: SW-620
UACC-257 = system: UACC-257
786-0 = system: 786-0
RPMI-8226 = system: RPMI-8226
SK-MEL-5 = system: SK-MEL-5
M14 = system: M14
HT-29 = system: HT-29
MCF7 = system: MCF7
HOP-92 = system: HOP-92
K562 = system: K562
Malme-3M = system: Malme-3M
MDA-N = system: MDA-N
CAKI-1 = system: CAKI-1
UACC-62 = system: UACC-62
IGROV-1 = system: IGROV-1
UO-31 = system: UO-31
SN12C = system: SN12C
NCI-H522 = system: NCI-H522
MDA-MB-231 = system: MDA-MB-231
MDA-MB-435 = system: MDA-MB-435
COLO 205 = system: COLO 205
NCI-H226 = system: NCI-H226
HCC 2998 = system: HCC 2998
HCT-15 = system: HCT-15
SF-539 = system: SF-539
EKVX = system: EKVX
OVCAR-3 = system: OVCAR-3
ACHN = system: ACHN
NCI/ADR-RES = system: NCI/ADR-RES
TK-10 = system: TK-10
U-251 = system: U-251
SK-MEL-28 = system: SK-MEL-28
HCT-116 = system: HCT-116
Hs-578T = system: Hs-578T
T47D = system: T47D
PC-3 = system: PC-3
SK-OV-3 = system: SK-OV-3
NCI-H460 = system: NCI-H460
OVCAR-4 = system: OVCAR-4
BT-549 = system: BT-549
DU-145 = system: DU-145
MOLT-4 = system: MOLT-4
KM12 = system: KM12
NCI-H23 = system: NCI-H23
LOX IMVI = system: LOX IMVI
SK-MEL-2 = system: SK-MEL-2
A498 = system: A498
SF-268 = system: SF-268
SNB-19 = system: SNB-19
HL-60 = system: HL-60
SR = system: SR
SNB-75 = system: SNB-75
HOP-62 = system: HOP-62
RXF 393 = system: RXF 393
CCRF-CEM = system: CCRF-CEM

**Q.** For `CO[C@@]12C[C@@H](C)[C@]34O[C@H]3C[C@]3(C)O[C@]43CC1=C(C)C(=O)O2`, which GI50 (A549) is on record?
**A.** The GI50 was > 100 µM (inactive).

**Q.** What about the GI50 (OVCAR-8) of the same compound?
**A.** The GI50 was > 100 µM (inactive).

**Q.** What about the GI50 (SF-295) of the same compound?
**A.** The GI50 was > 100 µM (inactive).

**Q.** What about the GI50 (OVCAR-5) of the same compound?
**A.** Its GI50 is > 100 µM (inactive).

**Q.** And the GI50 (SW-620)?
**A.** Its GI50 is > 100 µM (inactive).

**Q.** What about the GI50 (UACC-257) of the same compound?
**A.** The GI50 was > 100 µM (inactive).

**Q.** What about the GI50 (786-0) of the same compound?
**A.** Its GI50 is > 100 µM (inactive).

**Q.** And the GI50 (RPMI-8226)?
**A.** The GI50 was > 100 µM (inactive).

**Q.** What about the GI50 (SK-MEL-5) of the same compound?
**A.** Its GI50 is > 100 µM (inactive).

**Q.** And the GI50 (M14)?
**A.** Its GI50 is > 100 µM (inactive).

**Q.** And the GI50 (HT-29)?
**A.** Its GI50 is > 100 µM (inactive).

**Q.** And the GI50 (MCF7)?
**A.** Its GI50 is > 100 µM (inactive).

**Q.** What about the GI50 (HOP-92) of the same compound?
**A.** The GI50 was > 100 µM (inactive).

**Q.** And the GI50 (K562)?
**A.** The GI50 was > 100 µM (inactive).

**Q.** What about the GI50 (Malme-3M) of the same compound?
**A.** Its GI50 is > 100 µM (inactive).

**Q.** What about the GI50 (MDA-N) of the same compound?
**A.** The GI50 was > 100 µM (inactive).

**Q.** What about the GI50 (CAKI-1) of the same compound?
**A.** The GI50 was > 100 µM (inactive).

**Q.** What about the GI50 (UACC-62) of the same compound?
**A.** Its GI50 is > 100 µM (inactive).

**Q.** And the GI50 (IGROV-1)?
**A.** The GI50 was 38.8 µM (inactive).

**Q.** And the GI50 (UO-31)?
**A.** Its GI50 is > 100 µM (inactive).

**Q.** What about the GI50 (SN12C) of the same compound?
**A.** The GI50 was > 100 µM (inactive).

**Q.** And the GI50 (NCI-H522)?
**A.** Its GI50 is > 100 µM (inactive).

**Q.** And the GI50 (MDA-MB-231)?
**A.** Its GI50 is > 100 µM (inactive).

**Q.** And the GI50 (MDA-MB-435)?
**A.** The GI50 was > 100 µM (inactive).

**Q.** What about the GI50 (COLO 205) of the same compound?
**A.** The GI50 was > 100 µM (inactive).

**Q.** What about the GI50 (NCI-H226) of the same compound?
**A.** Its GI50 is > 100 µM (inactive).

**Q.** What about the GI50 (HCC 2998) of the same compound?
**A.** Its GI50 is > 100 µM (inactive).

**Q.** What about the GI50 (HCT-15) of the same compound?
**A.** Its GI50 is over 100 µM.

**Q.** What about the GI50 (SF-539) of the same compound?
**A.** Its GI50 is > 100 µM (inactive).

**Q.** And the GI50 (EKVX)?
**A.** Its GI50 is > 100 µM (inactive).

**Q.** What about the GI50 (OVCAR-3) of the same compound?
**A.** Its GI50 is > 100 µM (inactive).

**Q.** And the GI50 (ACHN)?
**A.** Its GI50 is > 100 µM (inactive).

**Q.** What about the GI50 (NCI/ADR-RES) of the same compound?
**A.** The GI50 was > 100 µM (inactive).

**Q.** What about the GI50 (TK-10) of the same compound?
**A.** Its GI50 is > 100 µM (inactive).

**Q.** And the GI50 (U-251)?
**A.** Its GI50 is > 100 µM (inactive).

**Q.** What about the GI50 (SK-MEL-28) of the same compound?
**A.** The GI50 was > 100 µM (inactive).

**Q.** And the GI50 (HCT-116)?
**A.** Its GI50 is > 100 µM (inactive).

**Q.** And the GI50 (Hs-578T)?
**A.** Its GI50 is > 100 µM (inactive).

**Q.** What about the GI50 (T47D) of the same compound?
**A.** Its GI50 is > 100 µM (inactive).

**Q.** What about the GI50 (PC-3) of the same compound?
**A.** The GI50 was > 100 µM (inactive).

**Q.** And the GI50 (SK-OV-3)?
**A.** Its GI50 is > 100 µM (inactive).

**Q.** And the GI50 (NCI-H460)?
**A.** Its GI50 is > 100 µM (inactive).

**Q.** What about the GI50 (OVCAR-4) of the same compound?
**A.** Its GI50 is > 100 µM (inactive).

**Q.** What about the GI50 (BT-549) of the same compound?
**A.** Its GI50 is > 100 µM (inactive).

**Q.** And the GI50 (DU-145)?
**A.** Its GI50 is > 100 µM (inactive).

**Q.** What about the GI50 (MOLT-4) of the same compound?
**A.** Its GI50 is < 0.01 µM (active).

**Q.** What about the GI50 (KM12) of the same compound?
**A.** The GI50 was > 100 µM (inactive).

**Q.** What about the GI50 (NCI-H23) of the same compound?
**A.** Its GI50 is > 100 µM (inactive).

**Q.** What about the GI50 (LOX IMVI) of the same compound?
**A.** The GI50 was > 100 µM (inactive).

**Q.** And the GI50 (SK-MEL-2)?
**A.** The GI50 was > 100 µM (inactive).

**Q.** And the GI50 (A498)?
**A.** The GI50 was > 100 µM (inactive).

**Q.** What about the GI50 (SF-268) of the same compound?
**A.** The GI50 was > 100 µM (inactive).

**Q.** What about the GI50 (SNB-19) of the same compound?
**A.** Its GI50 is > 100 µM (inactive).

**Q.** What does the source list for `O=c1[nH]c2cc3[nH]c4ncccc4c(=O)c3cc2[nH]1`?
**A.** GI50 (HL-60): > 10 µM (inactive); GI50 (A549): > 10 µM (inactive); GI50 (OVCAR-8): > 10 µM (inactive); GI50 (SF-295): > 10 µM (inactive); GI50 (OVCAR-5): > 10 µM (inactive); GI50 (SW-620): > 10 µM (inactive); GI50 (UACC-257): > 10 µM (inactive); GI50 (786-0): > 10 µM (inactive); GI50 (RPMI-8226): > 10 µM (inactive); GI50 (SK-MEL-5): > 10 µM (inactive); GI50 (M14): > 10 µM (inactive); GI50 (HT-29): > 10 µM (inactive); GI50 (HOP-92): > 10 µM (inactive); GI50 (SR): > 10 µM (inactive); GI50 (Malme-3M): > 10 µM (inactive); GI50 (MDA-N): > 10 µM (inactive); GI50 (CAKI-1): > 10 µM (inactive); GI50 (UACC-62): > 10 µM (inactive); GI50 (IGROV-1): > 10 µM (inactive); GI50 (SNB-75): > 10 µM (inactive); GI50 (SN12C): > 10 µM (inactive); GI50 (NCI-H522): > 10 µM (inactive); GI50 (MDA-MB-231): > 10 µM (inactive); GI50 (MDA-MB-435): > 10 µM (inactive); GI50 (COLO 205): > 10 µM (inactive); GI50 (NCI-H226): > 10 µM (inactive); GI50 (HCC 2998): > 10 µM (inactive); GI50 (HCT-15): > 10 µM; GI50 (HOP-62): > 10 µM (inactive); GI50 (RXF 393): > 10 µM (inactive); GI50 (SF-539): > 10 µM (inactive); GI50 (EKVX): > 10 µM (inactive); GI50 (CCRF-CEM): > 10 µM (inactive); GI50 (OVCAR-3): > 10 µM (inactive); GI50 (ACHN): > 10 µM (inactive); GI50 (NCI/ADR-RES): > 10 µM (inactive); GI50 (TK-10): > 10 µM (inactive); GI50 (U-251): > 10 µM (inactive); GI50 (SK-MEL-28): > 10 µM (inactive); GI50 (HCT-116): > 10 µM (inactive); GI50 (Hs-578T): > 10 µM (inactive); GI50 (T47D): > 10 µM (inactive); GI50 (PC-3): > 10 µM (inactive); GI50 (SK-OV-3): > 10 µM (inactive); GI50 (NCI-H460): > 10 µM (inactive); GI50 (OVCAR-4): > 10 µM (inactive); GI50 (BT-549): > 10 µM (inactive); GI50 (DU-145): > 10 µM (inactive); GI50 (MOLT-4): > 10 µM (inactive); GI50 (KM12): > 10 µM (inactive); GI50 (NCI-H23): > 10 µM (inactive); GI50 (LOX IMVI): > 10 µM (inactive); GI50 (SK-MEL-2): > 10 µM (inactive); GI50 (A498): > 10 µM (inactive); GI50 (SF-268): > 10 µM (inactive); GI50 (SNB-19): > 10 µM (inactive)
